The data set in a line: BCS classification. The conditions noted are these: because of pH dependent solubility in physiological range. In kind it is physicochemical.

BCS class data for one compound are collected here from patent US20220241260A9, “Pharmaceutical Compositions Of Metabotropic Glutamate 5 Receptor (MGLU5) Antagonists” (F. HOFFMANN-LA ROCHE AG, priority 2010, published 2022).

As to `Cc1nc(C#Cc2ccnc(Cl)c2)c(C)n1-c1ccc(F)cc1` [2-Chloro-4-[1-(4-fluoro-phenyl)-2,5-dimethyl-1H-imidazol-4-ylethynyl]-pyridine], the BCS class entry is “BCS class 2”.
